Read-outs that look alike come from different tables or passages of the source. Numbered stars: 1 amine (or outer) side, 2 acyl side, 3 side chain; on linkers, the order of the positions; unused ones are H or OH. Bridge positions count the residues as written; N and C are the ends. Square brackets hold non-standard residues; d marks the D form. Peptide text beside a SMILES is read from it. * marks the point of attachment. C20 diacid = O=C(O)CCCCCCCCCCCCCCCCCCC(=O)*; γGlu = O=C(O)[C@H](CCC(=O)[*:2])N[*:1]; 4Pal = N[C@@H](Cc1ccncc1)C(=O)O; Aib = CC(C)(N)C(=O)O; CH2 = C([*:1])[*:2]; βAla = NCCC(=O)O
Target: T1, human NPRA (Homo sapiens, UniProt P16066)
T1 construct: Full-Length cDNA Cloning and Generation of Cell Lines Overexpressing Natriuretic Peptide Receptors (NPRs); expressed in transfected cells; host or cells: Jump-in T-Rex HEK293 cells, pJTI R4 CMV-TO MCS pA vector, tetracycline induction
T1 sequence (P16066 33-1061): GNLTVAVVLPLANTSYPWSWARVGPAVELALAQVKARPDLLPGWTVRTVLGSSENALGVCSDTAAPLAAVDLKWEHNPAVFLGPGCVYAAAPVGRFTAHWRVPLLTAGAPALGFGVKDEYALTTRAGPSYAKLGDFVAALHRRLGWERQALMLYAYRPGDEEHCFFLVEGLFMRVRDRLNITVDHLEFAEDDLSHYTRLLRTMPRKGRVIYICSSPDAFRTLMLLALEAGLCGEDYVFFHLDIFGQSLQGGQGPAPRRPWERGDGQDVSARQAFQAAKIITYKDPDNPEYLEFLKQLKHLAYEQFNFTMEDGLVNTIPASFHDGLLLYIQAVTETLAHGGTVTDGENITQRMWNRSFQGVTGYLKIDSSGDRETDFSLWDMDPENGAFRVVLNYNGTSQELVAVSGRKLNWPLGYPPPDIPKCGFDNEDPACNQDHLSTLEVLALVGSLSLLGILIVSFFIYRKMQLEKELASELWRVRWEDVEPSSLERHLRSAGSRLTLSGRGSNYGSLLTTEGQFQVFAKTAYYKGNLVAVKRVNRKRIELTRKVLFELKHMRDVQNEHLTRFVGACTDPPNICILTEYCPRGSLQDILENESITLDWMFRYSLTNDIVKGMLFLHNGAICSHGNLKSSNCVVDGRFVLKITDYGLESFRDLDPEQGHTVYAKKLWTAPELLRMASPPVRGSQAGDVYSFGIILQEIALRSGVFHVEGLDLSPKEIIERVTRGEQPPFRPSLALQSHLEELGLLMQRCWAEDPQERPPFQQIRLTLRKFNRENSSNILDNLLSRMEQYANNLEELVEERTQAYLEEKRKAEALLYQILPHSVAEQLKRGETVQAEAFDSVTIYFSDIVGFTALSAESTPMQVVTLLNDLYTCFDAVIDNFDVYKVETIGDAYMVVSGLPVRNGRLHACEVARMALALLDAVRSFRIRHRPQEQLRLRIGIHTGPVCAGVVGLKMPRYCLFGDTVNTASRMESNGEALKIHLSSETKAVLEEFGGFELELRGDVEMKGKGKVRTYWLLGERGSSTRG
Assay: Human NPRA cGMP activity assay (HTRF) in HEK293 cells overexpressing NPRA
Format: cell-based
Protocol: All sequences were verified by full-length sequencing performed by ACGT DNA Sequencing Services (Wheeling, IL). The target cDNA was cloned into pJTI R4 CMV-TO MCS pA vector and then co-transfected with pJT1R4 Int vector into Jump-in™ T-Rex™ HEK293 cells for mammalian inducible expression using Jump-in™ T-Rex™ HEK293 kit and Lipofectamine LTX and Plus Reagent following manufacturer's protocols, as briefly described below.
Jump-in™ T-Rex™ HEK293 cells were plated in a BioCOAT® poly-D-lysine coated 6-well plate (Becton Dickinson, cat no. 354413) at 1 million cells/well in 2 mL culture medium and incubated for 18 h at 37° C. and 5% CO2 to 50-70% confluence. A cDNA mix was made in a 50 mL tube by adding 1.5 μg target cDNA, 1.5 μg pJT1R4 Int vector, 3 μL Plus Reagent, and 300 μL Opti-MEM I sequentially into the tube. A reagent mix was made in a separate 50 mL tube by adding 7.5 μL Lipofectamine LTX into 300 μL Opti-MEM I. The mixtures were incubated for 5 min at room temperature. The cDNA mix was then transferred into the reagent mix, mixed well, and incubated for additional 30 min at room temperature. A 500 μL of cDNA/Lipofectamine complex was then transferred to the wells of the cell plate in which the culture medium was changed to 2 mL of transfection medium containing DMEM with 4.5 g/L D-glucose supplemented with 10% FBS-HI and 20 mM HEPES. Transfected cells were cultured for 48 h in an incubator at 37° C. and 5% CO2. A subclone or pool from each overexpressing cell line was maintained in culture medium with the addition of 2 mg/mL G418 sulfate for the clone selection based on its built-in resistance to G418 sulfate for at least 3 weeks with medium changed every 2-3 days.
NPRs were overexpressed in T-Rex™ HEK293 cells following the induction with 300 ng/mL tetracycline in culture medium for 48 h. Induced cell lines in an exponential growth phase were treated with 0.05% trypsin-EDTA for a few seconds at room temperature, harvested in cell medium containing FBS to neutralize the trypsin, counted, and cryopreserved at the density of 2 million cells/mL in cell preservation solution containing FBS-HI with 5% DMSO. Cryopreserved cells were stored at −80° C. for a few days prior to transferring to a liquid nitrogen tank. Induced cell lines were then used for suspension assays to measure the activity of polypeptides to stimulate cGMP production in cGMP assays or for the preparation of cell membranes to measure the binding activity of polypeptides in competitive radioligand binding assays, as described below.
Test polypeptides were added starting at 10 μM concentration and at 10-fold decreasing concentrations to obtain 8-point concentration-response curves (i.e., 10 μM to 1 pM). The quantity of cGMP generated was detected using HTRF® technology and normalized to maximum amount produced by 100 nM amidated rat ANP and the minimum amount produced by assay buffer. Detailed steps are outlined below.
Stock solutions of test polypeptides (2 mM) dissolved in DMSO were first diluted 100-fold in assay buffer containing HBSS with Ca^2+ and Mg^2+, 5 mM HEPES, 0.5 mM IBMX, and 0.1% BSA or 0.1% casein (pH 7.4). The polypeptides were further serially diluted in 1:10 dilution steps in assay buffer containing 0.1% BSA or 0.1% casein to generate 8-point 2× working stock solutions ranging from 20 μM to […].
A 10 μL cell suspension containing 4000 cells was plated in Costar® half-area white opaque 96-well plates (Corning, cat no. 3693). Then 10 μL of assay buffer (basal activity), 200 nM of amidated rat ANP (maximum activity) or 2× working stock solutions of test polypeptides were transferred into the plate. Final concentration of DMSO in each well was 0.5%. The plate was shaken for 15 sec and then incubated for 40 min at room temperature.
The cGMP generated was measured using cGMP kit following the manufacturer's directions, as described below.

[1] = cGMP Assay (EC50, pM) w/Casein hNPRA, assay buffer with 0.1% casein
[2] = assay buffer with 0.1% BSA, read-out: cGMP Assay (EC50, pM) w/BSA hNPRA

Compound: CC[C@H](C)[C@@H]1NC(=O)[C@H](CCCNC(=N)N)NC(=O)[C@H](CC(=O)O)NC(=O)[C@H]([C@@H](C)CC)NC(=O)[C@H](CCCNC(=N)N)NC(=O)CNC(=O)CNC(=O)[C@H](Cc2ccccc2)NC(=O)[C@@H](NC(=O)[C@H](CO)NC(=O)[C@H](CO)NC(=O)[C@H](CCCNC(=N)N)NC(=O)[C@H](CCCNC(=N)N)NC(=O)[C@H](Cc2ccncc2)NC(=O)[C@H](CO)NC(=O)CNC(=O)[C@H](CCCCN)NC(=O)[C@H](CCC(=O)O)NC(=O)[C@H](CCCCN)NC(=O)[C@H](CCC(=O)O)NC(=O)[C@H](CCCCN)NC(=O)[C@H](CCC(=O)O)NC(=O)CC[C@H](NC(=O)CCCCCCCCCCCCCCCCCCC(=O)O)C(=O)O)CSSC[C@@H](C(=O)N[C@@H](CC(N)=O)C(=O)N[C@@H](CO)C(=O)N[C@@H](Cc2ccccc2)C(=O)N[C@@H](CCCNC(=N)N)C(=O)N[C@@H](Cc2ccncc2)C(N)=O)NC(=O)CNC(=O)[C@H](CC(C)C)NC(=O)CNC(=O)[C@H](CO)NC(=O)[C@H](CCC(N)=O)NC(=O)[C@H](C)NC(=O)CNC1=O [Example 15] ({C20 diacid-γGlu}-EKEKEKGS[4Pal]RRSSCFGGRIDRIGAQSGLGCNSFR[4Pal]-NH2; disulfide 14-30)
- EC50 (assay buffer with 0.1% casein, read-out: cGMP Assay (EC50, pM) w/Casein hNPRA): 912 pM

Compound: CC[C@H](C)[C@@H]1NC(=O)[C@H](CCCNC(=N)N)NC(=O)[C@H](CC(=O)O)NC(=O)[C@H]([C@@H](C)CC)NC(=O)[C@H](CCCNC(=N)N)NC(=O)[C@H](CCCCN)NC(=O)CNC(=O)[C@H](Cc2ccccc2)NC(=O)[C@@H](NC(=O)[C@H](CO)NC(=O)[C@H](CO)NC(=O)[C@H](CCCNC(=N)N)NC(=O)[C@@H]2CCCN2C(=O)[C@H](CCCCN)NC(=O)[C@H](CCC(=O)O)NC(=O)COCCOCCNC(=O)COCCOCCNC(=O)COCCOCCNC(=O)COCCOCCNC(=O)COCCOCCNC(=O)COCCOCCNC(=O)COCCOCCNC(=O)COCCOCCNC(=O)CNC(=O)[C@H](CCCCN)NC(=O)[C@H](CCC(=O)O)NC(=O)[C@H](CCCCN)NC(=O)[C@H](CCC(=O)O)NC(=O)[C@H](CCCCN)NC(=O)[C@H](CCC(=O)O)NC(=O)CC[C@H](NC(=O)CCCCCCCCCCCCCCCCCCC(=O)O)C(=O)O)CSCSC[C@@H](C(=O)N2CCC[C@H]2C(=O)N[C@@H](CO)C(=O)N[C@@H](Cc2ccccc2)C(=O)N[C@@H](CCCNC(=N)N)C(=O)N[C@@H](Cc2c[nH]cn2)C(=O)N[C@@H](CO)C(=O)NCC(=O)N[C@@H](CO)C(=O)N2CCC[C@H]2C(=O)N[C@@H](CO)C(=O)N[C@@H](CO)C(=O)NCC(=O)N[C@@H](C)C(=O)N2CCC[C@H]2C(=O)N2CCC[C@H]2C(=O)N2CCC[C@H]2C(=O)N[C@@H](CO)C(=O)NCC(N)=O)NC(=O)CNC(=O)[C@H](CC(C)C)NC(=O)CNC(=O)[C@H](CO)NC(=O)[C@H](Cc2ccc(O)cc2)NC(=O)[C@H](Cc2c[nH]cn2)NC(=O)CNC1=O [Example 126]
- EC50 [1]: 1090 pM

Compound: CC[C@H](C)[C@@H]1NC(=O)[C@H](CCCNC(=N)N)NC(=O)[C@H](CC(=O)O)NC(=O)[C@H]([C@@H](C)CC)NC(=O)[C@H](CCCNC(=N)N)NC(=O)CNC(=O)[C@H](Cc2ccncc2)NC(=O)[C@H](Cc2ccccc2)NC(=O)[C@@H](NC(=O)[C@H](CO)NC(=O)[C@H](CO)NC(=O)[C@H](CCCNC(=N)N)NC(=O)[C@H](CCCNC(=N)N)NC(=O)[C@H](CC(C)C)NC(=O)[C@H](CO)NC(=O)CNC(=O)[C@H](CCCCN)NC(=O)[C@H](CCC(=O)O)NC(=O)[C@H](CCCCN)NC(=O)[C@H](CCC(=O)O)NC(=O)[C@H](CCCCN)NC(=O)[C@H](CCC(=O)O)NC(=O)CC[C@H](NC(=O)CCCCCCCCCCCCCCCCCCC(=O)O)C(=O)O)CSSC[C@@H](C(=O)N[C@@H](CC(N)=O)C(=O)N[C@@H](CO)C(=O)N[C@@H](Cc2ccccc2)C(=O)N[C@@H](CCCNC(=N)N)C(=O)N[C@@H](Cc2ccc(O)cc2)C(N)=O)NC(=O)CNC(=O)[C@H](CC(C)C)NC(=O)CNC(=O)[C@H](CO)NC(=O)[C@H](CCC(N)=O)NC(=O)[C@H](C)NC(=O)CNC1=O [Example 13] ({C20 diacid-γGlu}-EKEKEKGSLRRSSCF[4Pal]GRIDRIGAQSGLGCNSFRY-NH2; disulfide 14-30)
- EC50 [2]: 145000 pM

Compound: CC[C@H](C)[C@@H]1NC(=O)[C@H](CCCNC(=N)N)NC(=O)[C@H](CC(=O)O)NC(=O)[C@H]([C@@H](C)CC)NC(=O)[C@H](CCCNC(=N)N)NC(=O)CNC(=O)CNC(=O)[C@H](Cc2ccccc2)NC(=O)[C@@H](NC(=O)[C@H](CO)NC(=O)[C@H](CO)NC(=O)[C@H](CCCNC(=N)N)NC(=O)[C@H](CCCNC(=N)N)NC(=O)[C@H](Cc2ccncc2)NC(=O)[C@H](CO)NC(=O)CNC(=O)[C@H](CCCCN)NC(=O)[C@H](CCC(=O)O)NC(=O)[C@H](CCCCN)NC(=O)[C@H](CCC(=O)O)NC(=O)[C@H](CCCCN)NC(=O)[C@H](CCC(=O)O)NC(=O)CC[C@H](NC(=O)CCCCCCCCCCCCCCCCCCC(=O)O)C(=O)O)CSCSC[C@@H](C(=O)N2CCC[C@H]2C(=O)N[C@@H](CO)C(=O)N[C@@H](Cc2ccccc2)C(=O)N[C@@H](CCCNC(=N)N)C(=O)N[C@@H](Cc2c[nH]cn2)C(=O)NCC(=O)NCC(=O)N2CCC[C@H]2C(=O)N[C@@H](CO)C(=O)N[C@@H](CO)C(=O)NCC(=O)N[C@@H](C)C(=O)N2CCC[C@H]2C(=O)N2CCC[C@H]2C(=O)N2CCC[C@H]2C(=O)N[C@@H](CO)C(N)=O)NC(=O)CNC(=O)[C@H](CC(C)C)NC(=O)CNC(=O)[C@H](CO)NC(=O)[C@H](CCC(N)=O)NC(=O)[C@H](Cc2c[nH]cn2)NC(=O)CNC1=O [Example 2]
- EC50 [1]: 1020 pM

Compound: {C20 diacid-γGlu}-EKEKEKGS[4Pal]RRSSCFGGRIDRIGHQSGLGCPSFRHGGPPS[Aib]KPPPK-NH2 (linker 14-30 via CH2) [Example 68]
- EC50 [2]: 96800 pM

Compound: {C20 diacid-γGlu}-EKEKEKGEK[βAla]RSSCFGGRIDRIGHYSGLGCPSLRHGGPSSGAPPPS-NH2 (linker 14-30 via CH2) [Example 63]
- EC50 [1]: 1090 pM

From patent publication US20240174727A1, “LONG-ACTING NATRIURETIC PEPTIDES AND USES THEREOF” (Eli Lilly and Company, priority 2022, published 2024)
